From patent US20160030426A1, “HETEROARYL COMPOUNDS AND USES THEREOF” (CELGENE AVILOMICS RESEARCH, INC., priority 2013, published 2016)

Target: T1, EGFR-WT (Homo sapiens, UniProt P00533)
T1 construct: purchased Invitrogen PV3872
Assay: Omnia assay for potency assessment against EGFR-WT
Format: biochemical
Details: 30 min pre-incubation at 27° C., read-out: EGFR Inhibition
Procedure: Omnia Assay Protocol for Potency Assessment Against BTK and EGFR
The mechanics of the assay platform are best described by the vendor (Invitrogen, Carlsbad, Calif.).
10× stocks of EGFR-WT (PV3872) from Invitrogen, 1.13×ATP (Invitrogen catalog number AS001A) and appropriate Tyr-Sox conjugated peptide substrates (Invitrogen catalog number KCZ1001) were prepared in 1× kinase reaction buffer consisting of 20 mM Tris, pH 7.5, 5 mM MgCl2, 1 mM EGTA, 5 mM β-glycerophosphate, 5% glycerol (10× stock, Invitrogen catalog number KB002A) and 0.2 mM DTT (Invitrogen catalog number DS001A). 5 μL of each enzyme were pre-incubated in a Corning (#3574) 384-well, white, non-binding surface microtiter plate (Corning, N.Y.) for 30 min. at 27° C. with a 0.5 μL volume of 50% DMSO and serially diluted compounds prepared in 50% DMSO. Kinase reactions were started with the addition of 45 μL of the ATP/Tyr-Sox peptide substrate mix and monitored every 30-90 seconds for 60 minutes at λex360/λem485 in a Synergy^4 plate reader from BioTek (Winooski, Vt.). […] Initial velocity (0 minutes to ˜30 minutes) from each reaction was determined from the slope of a plot of relative fluorescence units vs time (minutes) and then plotted against inhibitor concentration to estimate IC50 from log[Inhibitor] vs Response, Variable Slope model in GraphPad Prism from GraphPad Software (San Diego, Calif.).

T1 sequence (P00533 668-1210 limits assumed): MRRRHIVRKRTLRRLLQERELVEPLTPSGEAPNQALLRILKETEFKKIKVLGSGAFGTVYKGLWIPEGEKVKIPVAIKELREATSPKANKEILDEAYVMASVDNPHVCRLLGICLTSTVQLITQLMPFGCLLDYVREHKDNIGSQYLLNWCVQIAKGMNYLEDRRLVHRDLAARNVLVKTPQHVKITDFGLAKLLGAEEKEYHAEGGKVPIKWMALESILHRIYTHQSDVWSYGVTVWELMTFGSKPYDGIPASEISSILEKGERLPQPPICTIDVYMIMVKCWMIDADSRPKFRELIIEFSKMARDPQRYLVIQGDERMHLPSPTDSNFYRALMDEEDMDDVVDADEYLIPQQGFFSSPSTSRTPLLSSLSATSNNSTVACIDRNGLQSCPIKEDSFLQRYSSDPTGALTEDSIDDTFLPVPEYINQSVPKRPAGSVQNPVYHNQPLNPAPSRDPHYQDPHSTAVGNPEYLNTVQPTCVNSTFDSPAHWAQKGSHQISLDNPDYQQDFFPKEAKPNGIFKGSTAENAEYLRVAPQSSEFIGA

IC50: 10 to 100 nM
Structure (SMILES): [2H]C([2H])([2H])OC([2H])([2H])C([2H])([2H])Oc1ccc(Nc2ncc(F)c(Nc3cccc(NC(=O)C=C)c3)n2)cc1 [II-7]
